ChEMBL document CHEMBL1156829 (Proc Natl Acad Sci U S A, 2008)

Tests used:
Plasmodium falciparum [1] = test: NOVARTIS: Inhibition of Plasmodium falciparum 3D7 (drug-susceptible) proliferation in erythrocyte-based infection assay; type: functional, organism-based; conditions: Plasmodium falciparum, 3D7
Plasmodium falciparum [2] = test: NOVARTIS: Inhibition of Plasmodium falciparum W2 (drug-resistant) proliferation in erythrocyte-based infection assay; type: functional, organism-based; conditions: Plasmodium falciparum, W2; read-out: EC50
[3] = NOVARTIS: Cytotoxicity against human hepatocellular carcinoma cell line (Huh7); type: toxicity, cell-based, Huh-7; conditions: Huh7 cells (hepatocellular carcinoma cell line)

SMILES | EC50 (Plasmodium falciparum [1]) [nM] | EC50 (Plasmodium falciparum [2]) [nM] | CC50 [3] [nM]
Oc1ccc(-c2ccc3c(c2)OCO3)cc1CNC12CC3CC(CC(C3)C1)C2 | 832 | 225 | > 100000
CCCN1CCc2c(sc3nc(SC)n(-c4ccccc4)c(=O)c23)C1 | 947 | 627 | > 100000
CCOC(=O)c1oc2cc(O)c(CC)cc2c(=O)c1-c1ccc2c(c1)OCO2 | > 834 | > 1250 | > 10000
OCc1nc2ccccc2n1CCOc1ccccc1 | > 1250 | 23.3 | > 10000
CCOc1ccc(N=C2NC(=O)SC2=C2C(=O)Nc3ccc(Br)cc32)cc1 | > 12500 | 4910 | > 100000
C=CCN1C(=O)/C(=C\c2cc(Cl)c(O)c(OC)c2)C(=O)NC1=S | 2110 | > 1480 | > 10000
COc1cc(C=NNC(=O)c2ccco2)ccc1OCc1ccc([N+](=O)[O-])cc1 | > 1250 | > 941 | > 10000
O=C(Nc1ccc(Cl)cc1)N1CCN(c2ccc3nncn3n2)CC1 | 2060 | 1380 | > 100000
Clc1cc(C=NNC2=NCCCN2)cc(Cl)n1 | 247 | > 718 | > 10000
CN1C(=O)N(C)C2(c3ccccc3)NN3C(=NC12c1ccccc1)SC1=C3C(=O)c2ccccc2C1=O (stereo unspecified) | 2830 | 95.5 | > 100000
COc1ccc([C@]23Oc4cc(OC)cc(OC)c4[C@@]2(O)[C@@H](O)C(C(=O)N(C)C)[C@@H]3c2ccccc2)cc1 (stereo partly specified) | > 602 | 630 | > 10000
COc1cc(/C=C/C(=O)Nc2ccc3nc(N4CCN(c5ncccn5)CC4)cc(C)c3c2)cc(OC)c1OC | 1330 | 739 | > 10000
Cc1c(C(=O)N2CCC(C)CC2)sc2ncn(CC(=O)N3CCN(c4ccccn4)CC3)c(=O)c12 | > 1250 | 266 | > 10000
CCCCCCC(=O)Oc1ccccc1-c1nc2ccccn2c1NC(C)(C)CC(C)(C)C | 1060 | 78.3 | > 10000
CCc1ccccc1N(CC(=O)NC1CCCCC1)C(=O)CCC(=O)Nc1ccccn1 | 835 | 1270 | > 100000
COc1ccc2c(c1)C=C([C@@H]1C[C@H]3CN(c4ccccc4)C(=O)[C@]34CCCN14)CO2 | 588 | 289 | > 100000
CCn1c2cc(C)sc2c2cnn(CC(=O)Nc3c(C)nn(C)c3C)c(=O)c21 | > 749 | > 1250 | > 10000
O=C(Cc1ccccc1)NCc1nnc(SCC(=O)N2N=C(c3cccs3)CC2c2ccc(F)cc2)n1Cc1ccccc1 (stereo unspecified) | 8850 | 984 | > 100000
O=C(Nc1ccc(Oc2cccnc2)cc1)C1CCN(Cc2cc3ccccc3o2)CC1 | 367 | 1510 | > 100000
CCN(CC)CCCC(C)Nc1ccnc2ccc([N+](=O)[O-])cc12 (stereo unspecified) | 249 | 747 | > 10000
COc1ccc(/C=C2/SC(=N)N(c3ccccc3OC)C2=O)cc1 | 350 | 291 | > 10000
CCOc1ccc(C(=O)C(C)[n+]2cc(-c3ccc(Cl)cc3)n3c2CCC3)cc1 (stereo unspecified) | 1500 | 976 | > 78300
FC(F)(F)c1cccc(Nc2nc3nonc3nc2Nc2ccc(Br)cc2)c1 | 7620 | 5200 | 7130
Cc1nc2sccn2c1-c1csc(Nc2ccccn2)n1 | 381 | 889 | > 100000
C=CC[n+]1c(C=C2C=CN(C)C=C2)sc2ccccc21 | 172 | 140 | 24600
COc1ccc(C2CC(=O)C3=C(C2)NC(C)=C(C(=O)OC2CCCC2)C3c2ccc([N+](=O)[O-])cc2)cc1OC (stereo unspecified) | 31 | 14.8 | > 100000
CCNc1ncnc2sc(C(=O)NCc3csc(C)n3)c(C)c12 | > 12500 | > 8590 | > 100000
